The target in assay [1] is T1, BRD4 BD2 (Homo sapiens, UniProt O60885, Y97A).
T1 construct: BRD4 (1-477) (Y97A) and (Y390A); made in house; host or cells: E. coli (pET15b vector)
As to the kind of experiment: BRD4 BD2 TR-FRET competition assay (mutant tandem bromodomain). The class given is binding. Conditions: read-out: pIC50 in the BRD4 BD2 assay (converted). How it is done: Bromodomain binding was assessed utilising a time resolved fluorescent resonance energy transfer (TR-FRET) competition assay. To enable this approach a known, high affinity, pan-BET interacting small molecule was labelled with Alexa Fluor® 647, which is a far-red-fluorescent dye (Reference Compound X). Reference Compound X acts as a reporter of bromodomain binding and is the acceptor fluorophore component of the TR-FRET pair. Europium chelate, conjugated to an anti-6*His antibody, was utilised as the donor fluorophore in the TR-FRET pair. […] A TR-FRET signal is generated when the donor and acceptor fluorophores are in close proximity, between 20-80 Å, which is enabled in this assay by binding of Reference Compound X to the bromodomain protein.
Assay Principle: In order to generate a TR-FRET signal, donor fluorophore is excited by a laser at λ337 nm, which subsequently leads to emission at λ618 nm. If the acceptor fluorophore is in close proximity then energy transfer can occur, which leads to emission of Alexa Fluor® 647 at λ665 nm. In the presence of competitor compound, Reference Compound X can be displaced from binding to the bromodomain. If displacement occurs, the acceptor fluorophore is no longer in proximity to the donor fluorophore, which prevents fluorescent energy transfer and, subsequently, a loss of Alexa Fluor®647 emission at λ665 nm.
(§1) The competition of the compounds of formula (I) with Reference Compound X for binding to the BET family (BRD2, BRD3, BRD4 and BRDT) was assessed using protein truncates spanning both bromodomain 1 (BD1) and bromodomain 2 (BD2). In order to monitor differential binding to either BD1 or BD2, single residue mutations of key tyrosines to alanine were made in the acetyl lysine binding pockets. To validate this approach, a double residue mutant tandem domain protein was produced for each of the BET family members. Utilising a Fluorescence Polarisation approach, binding affinities for each of the single and double mutants for Reference Compound X were determined.
Final purification was completed by Superdex 200 prep grade size exclusion column. Purified protein was stored at −80° C. in 20 mM HEPES pH 7.5 and 100 mM NaCl.
Protocol for Bromodomain BRD2, 3, 4 and T, BD1+BD2 mutant TR-FRET competition assays: All assay components were dissolved in an assay buffer composing of 50 mM HEPES pH7.4, 50 mM NaCl, 5% Glycerol, 1 mM DTT and 1 mM CHAPS. […] The solution containing bromodomain and Reference Compound X was added to dose response dilutions of test compound or DMSO vehicle (a maximum of 0.5% DMSO is used in this assay) in Greiner 384 well black low volume microtitre plates and subsequently incubated for 30 minutes at rt. An equal volume of 3 nM of anti-6*His Europium chelate was added to all wells, followed by a further 30 minute incubation at rt. TR-FRET was detected using a Perkin Elmer Multimode plate reader, by exciting the donor fluorophore at λ337 nm and subsequently, after a delay of 50 μsecs, measuring emission of the donor and acceptor fluorophores at λ615 nm and λ665 nm, respectively. In order to control these assays, 16 replicates each of uninhibited (DMSO vehicle) and inhibited (10*IC50 concentrations of Example 11 of WO 2011/054846A1) TR-FRET assays were included on every microtitre plate.
cA four parameter curve fit of the following form was then applied:
y=a+((b−a)/(1+(10^x/10^c)^d) • Where ‘a’ is the minimum, ‘b’ is the […], ‘c’ is the pIC50 and ‘d’ is the […].
Those of skill in the art will recognise that in vitro binding assays and cell-based assays for functional activity are subject to experimental variability. Accordingly, it is to be understood that the pIC50 values given below are exemplary only. pIC50 values are expressed as log10 units.

The test system of assay [2] is BET family (BRD2, BRD3, BRD4 and BRDT) tandem bromodomain proteins. The assay is described as follows: Fluorescence Polarisation binding of Reference Compound X to single and double mutant tandem BET proteins. Further details: species or system Human. On the procedure:
as §1, with “determined. […] The affinities of the single mutated bromdomain tandem proteins for Reference Compound X were equi-potent with the corresponding non-mutated BET protein. […] In the TR-FRET competition assay, Reference Compound X is used at a concentration that is equivalent to the Kd for the non-mutated bromodomain, which ensures that no binding at the mutated bromodomain is detected.” for “determined.”
Protein production: Recombinant Human Bromodomains [(BRD2 (1-473) (Y113A) and (Y386A), BRD3 (1-435) (Y73A) and (Y348A) BRD4 (1-477) (Y97A) and (Y390A) and BRDT (1-397) (Y66A) and (Y309A)] were expressed in E. coli cells (in pET15b vector for BRD2/3/4 and in pET28a vector for BRDT) with a 6-His tag at the N-terminal. The His-tagged Bromodomain pellet was resuspended in 50 mM HEPES (pH7.5), 300 mM NaCl, 10 mM imidazole & 1 μL/mL protease inhibitor cocktail and extracted from the E. coli cells using sonication and purified using a nickel sepharose high performance column, the proteins were washed and then eluted with a linear gradient of 0-500 mM imidazole with buffer 50 mM HEPES (pH7.5), 150 mM NaCl, 500 mM imidazole, over 20 column volumes. Final purification was completed by Superdex 200 prep grade size exclusion column. Purified protein was stored at −80° C. in 20 mM HEPES pH 7.5 and 100 mM NaCl. Protein identity was confirmed by peptide mass fingerprinting and predicted molecular weight confirmed by mass spectrometry.

On to `CNC(=O)c1cc(C(=O)N[C@H]2[C@@H]3COC[C@@H]32)c([C@H](CC#N)c2cccc(Cl)c2)o1` (single isomer, unassigned) [Example 88, N^4-((1R,5S,6r)-3-Oxabicyclo[3.1.0]hexan-6-yl)-5-((R*)-1-(3-chlorophenyl)-2-cyanoethyl)-N^2-methylfuran-2,4-dicarboxamide], for which, in assay [1], the IC50 was 1 to 10 µM.
Still for that read-out and setting: then `CNC(=O)c1cc(C(=O)N[C@H]2[C@@H]3COC[C@@H]32)c([C@H](C)c2cccc(Cl)c2)o1` (single isomer, unassigned) [Example 89, N^4-((1R,5S,6r)-3-Oxabicyclo[3.1.0]hexan-6-yl)-5-((R*)-1-(3-chlorophenyl)ethyl)-N^2-methylfuran-2,4-dicarboxamide], with 1 to 10 µM; and `CNC(=O)c1cc(C(=O)N[C@H]2CC[C@H](O)CC2)c([C@@H](OC)c2cccc(Cl)c2)o1` (single isomer, unassigned) [Example 93, 5-((S*)-(3-Chlorophenyl)(methoxy)methyl)-N^4-((1r,4S)-4-hydroxycyclohexyl)-N^2-methylfuran-2,4-dicarboxamide], with 1 to 10 µM.
On the same count and under the same terms, then `CNC(=O)c1cc(C(=O)N[C@H]2CC[C@H](O)CC2)c([C@@H](C)c2cc(Cl)cc(OC)c2)o1` (single isomer, unassigned) [Example 94, 5-((S*)-1-(3-Chloro-5-methoxyphenyl)ethyl)-N^4-((1r,4S)-4-hydroxycyclohexyl)-N^2-methylfuran-2,4-dicarboxamide], with 1 to 10 µM.
Still for that read-out and setting: to `CNC(=O)c1cc(C(=O)N[C@H]2CC[C@H](O)CC2)c([C@@H](C)c2ccc(OC)c(Cl)c2)o1` (single isomer, unassigned) [Example 95, 5-((S*)-1-(3-Chloro-4-methoxyphenyl)ethyl)-N^4-((1r,4S)-4-hydroxycyclohexyl)-N^2-methylfuran-2,4-dicarboxamide] belongs 1 to 10 µM; to `CNC(=O)c1cc(C(=O)N[C@H]2C[C@@H]2C)c(C(C)c2ccccc2)o1` (single isomer, unassigned) [Example 96, N^2-methyl-N^4-((1S,2S)-2-Methylcyclopropyl)-5-((S*)-1-phenylethyl)furan-2,4-dicarboxamide], 1 to 10 µM; to `CNC(=O)c1cc(C(=O)N[C@H]2CC[C@H](O)CC2)c([C@@H](C)c2ccc(C)c(Cl)c2)o1` (single isomer, unassigned) [Example 98, 5-((S*)-1-(3-Chloro-4-methylphenyl)ethyl)-N^4-((1r,4S)-4-hydroxycyclohexyl)-N^2-methylfuran-2,4-dicarboxamide], 1 to 10 µM.
Take `CNC(=O)c1cc(C(=O)N[C@H]2CC[C@H](O)CC2)c([C@@H](CO)c2ccccc2)o1` (single isomer, unassigned) [Example 101, 5-((R*)-2-Hydroxy-1-phenylethyl)-N^4-((1r,4R)-4-hydroxycyclohexyl)-N^2-methylfuran-2,4-dicarboxamide]: in assay [1], the IC50 was 1 to 10 µM.
The same measure, in the same setting: then `CNC(=O)c1cc(C(=O)N[C@H]2CC[C@H](O)CC2)c([C@@H](C)c2ccc(OC)cc2)o1` (single isomer, unassigned) [Example 102, N^4-((1r,4S)-4-Hydroxycyclohexyl)-5-((S*)-1-(4-methoxyphenyl)ethyl)-N^2-methylfuran-2,4-dicarboxamide], with 1 to 10 µM.
Same read-out and setting: then `CNC(=O)c1cc(C(=O)N[C@H]2CC[C@H](O)CC2)c([C@@H](C)c2ccc(OC)c(OC)c2)o1` (single isomer, unassigned) [Example 106, 5-((S*)-1-(3,4-Dimethoxyphenyl)ethyl)-N^4-((1r,4S)-4-hydroxycyclohexyl)-N^2-methylfuran-2,4-dicarboxamide], with 1 to 10 µM.
Regarding `CNC(=O)c1cc(C(=O)N[C@H]2CC[C@H](O)CC2)c([C@@H](OC)c2ccccc2)o1` (single isomer, unassigned) [Example 108, N^4-((1r,4S)-4-Hydroxycyclohexyl)-5-((S*)-methoxy(phenyl)methyl)-N^2-methylfuran-2,4-dicarboxamide], the IC50 in assay [1] is 1 to 10 µM.
Same read-out and setting: to `CNC(=O)c1cc(C(=O)NCC2CC2)c([C@@H](C)c2ccccc2)o1` [Example 104, (S)-N^4-(Cyclopropylmethyl)-N^2-methyl-5-(1-phenylethyl)furan-2,4-dicarboxamide] belongs 1 to 10 µM.
On to `COc1ccc2c(c1)C(c1ccc(Cl)cc1)=N[C@@H](CC(=O)NCCCCCNC(=O)CCCCCC1(C)/C(=C/C=C/C=C/C3=[N+](CCCCS(=O)(=O)O)c4ccc(S(=O)(=O)O)cc4C3(C)C)N(CCCCS(=O)(=O)[O-])c3ccc(S(=O)(=O)O)cc31)c1nnc(C)n1-2` (stereo partly drawn) [Reference Compound X], for which, in assay [2] (compared with the corresponding non-mutated BET protein), the “affinities of the single mutated bromdomain tandem proteins” value is reported as “equi-potent”. The “reduction in Kd” value in assay [2] (double mutant tandem proteins in comparison to non mutated, wild type tandem BET proteins) is recorded as over 1000 fold. In assay [2] (single mutations of Tyrosine to Alanine), the “reduction of the Kd of the interaction between the mutated bromodomain and Reference Compound X” value is over 1000 fold.

(Values after patent US20210346336A1, “FURAN DERIVATIVES AS BROMODOMAIN INHIBITORS” (GlaxoSmithKline Intellectual Property (No.2) Limited, priority 2018, published 2021).)
